Measurements published in ChEMBL document CHEMBL4483862, “Open-source discovery of chemical leads for next-generation chemoprotective antimalarials” (2018).

System: Plasmodium berghei
Test: Luciferase/luciferin-expressing antifolate-resistant parasites were used to infect a culture of HepG2 cells that were pre-incubated with compounds. Infected hepatocytes emit light due to the luciferase reaction. Assay results are presented as the percent inhibition of light emission compared to control. […]
Type: functional
Conditions: sporozoite; for IC90: read-out: LUCIFERASE INFECTION ASSAY - IC90
[1] = read-out: LUCIFERASE INFECTION ASSAY - IC50

COC(=O)c1ccc(-c2cnc3ccc(NCc4cccc(Cl)c4)nn23)cc1
IC50 (PBLUC_HILL_SLOPE 14.1, PBLUC_R_SQUARED 0.0198, read-out: LUCIFERASE INFECTION ASSAY - IC50): 7.46 µM | IC90: > 8.4 µM

Cc1cc(SCCN)c2cc(F)ccc2n1
IC50 (HEPG2TOX_HILL_SLOPE 2.08, HEPG2TOX_R_SQUARED 0.947, PBLUC_HILL_SLOPE 2.61, PBLUC_R_SQUARED 0.644, read-out: LUCIFERASE INFECTION ASSAY - IC50): 6.26 µM | IC90: > 14 µM

O=C(Nc1cc(Cl)cc(Cl)c1)c1ccccc1O
IC50 [1]: 3.79 µM | IC90: 4.44 µM

COCCOc1ccc(C(F)(F)F)cc1NC(=O)c1ccc2ncsc2c1
IC50 (PBLUC_HILL_SLOPE 1.17, PBLUC_R_SQUARED 0.0937, read-out: LUCIFERASE INFECTION ASSAY - IC50): 8.48 µM | IC90: > 10 µM

C#CCOc1ccccc1/C=C(\C#N)c1nc(N)nc(Nc2ccccc2)n1
IC50 (FFLUC_HILL_SLOPE 15.9, FFLUC_R_SQUARED 0.0727, HEPG2TOX_HILL_SLOPE 1.54, HEPG2TOX_R_SQUARED 0.555, PBLUC_HILL_SLOPE 1.18, PBLUC_R_SQUARED 0.297, read-out: LUCIFERASE INFECTION ASSAY - IC50): > 10 µM | IC90: > 10 µM

Cc1cccn2c(=O)cc(CSc3cc(C(=O)NC4CC4)c4ccccc4n3)nc12
IC50 [1]: > 10 µM | IC90: > 10 µM

CC(C)(C)CNC(=S)N/N=C/c1cc(Cl)cc(Cl)c1O
IC50 (HEPG2TOX_HILL_SLOPE 2.41, HEPG2TOX_R_SQUARED 0.728, PBLUC_HILL_SLOPE 9.45, PBLUC_R_SQUARED 0.267, read-out: LUCIFERASE INFECTION ASSAY - IC50): 9.07 µM | IC90: > 9.87 µM

Cc1ccc(S(=O)(=O)Oc2c(C(C)C)cc(Nc3cc(C)ccc3C)cc2C(C)C)cc1
IC50 (HEPG2TOX_HILL_SLOPE 0.156, HEPG2TOX_R_SQUARED 0.126, PBLUC_HILL_SLOPE 13.1, PBLUC_R_SQUARED 0.436, read-out: LUCIFERASE INFECTION ASSAY - IC50): 9 µM | IC90: > 10 µM

O=C(Nn1cnc2ccccc21)c1ccccc1Nc1ccc(SC(F)F)cc1
IC50 (PBLUC_HILL_SLOPE 11.6, PBLUC_R_SQUARED 0.0782, read-out: LUCIFERASE INFECTION ASSAY - IC50): 8.68 µM | IC90: > 10 µM

CN1CCN(c2ccc(-c3cn4c(-c5ccc(Oc6ccccc6)cc5)cnc4cn3)cn2)CC1
IC50 [1]: 6.77 µM | IC90: > 7.13 µM

C=CCNC(=O)CN(c1ccc(Br)cc1)S(C)(=O)=O
IC50 [1]: > 9.5 µM | IC90: > 9.5 µM

COc1ccc(S(=O)(=O)N2CCc3ccccc32)cc1C(=O)Oc1c(Cl)cc(Cl)c2ccc(C)nc12
IC50 (PBLUC_HILL_SLOPE 13.5, PBLUC_R_SQUARED 0.253, read-out: LUCIFERASE INFECTION ASSAY - IC50): > 10 µM | IC90: > 10 µM

C=CCn1c(COc2ccccc2F)nnc1Sc1cc(C)nc2ncnn12
IC50 [1]: > 10 µM | IC90: > 10 µM

CCOC(=O)c1c(C)oc2c1cc(OS(=O)(=O)c1ccc(NC(C)=O)cc1)c1ccccc12
IC50 (HEPG2TOX_HILL_SLOPE 2.44, HEPG2TOX_R_SQUARED 0.99, PBLUC_HILL_SLOPE 3.26, PBLUC_R_SQUARED 0.643, read-out: LUCIFERASE INFECTION ASSAY - IC50): 5.05 µM | IC90: 9.89 µM

COc1ccc(CCn2c(C)nc3c(cnn3-c3ccccc3)c2=O)cc1
IC50 [1]: 0.489 µM | IC90: 3.03 µM

COc1cc(-c2cnc3ccc(Cc4ccccc4)nn23)cc(OC)c1OC
IC50 (HEPG2TOX_HILL_SLOPE 1.4, HEPG2TOX_R_SQUARED 0.659, PBLUC_HILL_SLOPE 16.5, PBLUC_R_SQUARED 0.342, read-out: LUCIFERASE INFECTION ASSAY - IC50): 9.26 µM | IC90: > 10 µM

O=C(Nc1nc2ccccc2[nH]1)c1ccc(S(=O)(=O)N2CCc3ccccc3C2)cc1
IC50 (FFLUC_HILL_SLOPE 9.27, FFLUC_R_SQUARED 0.301, PBLUC_HILL_SLOPE 0.89, PBLUC_R_SQUARED 0.688, read-out: LUCIFERASE INFECTION ASSAY - IC50): 4.81 µM | IC90: > 10 µM

CCn1c2ccccc2c2cc(CN(C)C(=O)Cn3nnc4ccccc43)ccc21
IC50 (HEPG2TOX_HILL_SLOPE 27.9, HEPG2TOX_R_SQUARED 0.506, PBLUC_HILL_SLOPE 3.75, PBLUC_R_SQUARED 0.455, read-out: LUCIFERASE INFECTION ASSAY - IC50): 1.16 µM | IC90: 2.08 µM

Cc1nnc(Sc2ncnc3scc(-c4ccccc4)c23)s1
IC50 (HEPG2TOX_HILL_SLOPE 11.3, HEPG2TOX_R_SQUARED 0.507, PBLUC_HILL_SLOPE 5.22, PBLUC_R_SQUARED 0.122, read-out: LUCIFERASE INFECTION ASSAY - IC50): 4.52 µM | IC90: 6.88 µM

CS(=O)(=O)Nc1ccc(-c2csc(Nc3ccccn3)n2)cc1
IC50 (HEPG2TOX_HILL_SLOPE 3.13, HEPG2TOX_R_SQUARED 0.99, PBLUC_HILL_SLOPE 12.3, PBLUC_R_SQUARED 0.0453, read-out: LUCIFERASE INFECTION ASSAY - IC50): 8.1 µM | IC90: 9.68 µM

O=C1NC2(CCc3ccccc32)C(=O)N1Cc1cc2ccccc2nc1Cl (stereo not given)
IC50 (HEPG2TOX_HILL_SLOPE 1.06, HEPG2TOX_R_SQUARED 0.864, read-out: LUCIFERASE INFECTION ASSAY - IC50): > 10 µM | IC90: > 10 µM

CCC(C)NC(=O)c1c(NC(=O)c2cccc(C(F)(F)F)c2)nc2ccc(C)cn12 (stereo not given)
IC50 (PBLUC_HILL_SLOPE 12.7, PBLUC_R_SQUARED 0.269, read-out: LUCIFERASE INFECTION ASSAY - IC50): 2.52 µM | IC90: 2.99 µM

O=[N+]([O-])c1cc(Cl)cc(/C=N/Nc2cc(C(F)(F)F)ccc2Cl)c1O
IC50 (FFLUC_HILL_SLOPE 3.01, FFLUC_R_SQUARED 0.379, HEPG2TOX_HILL_SLOPE 2.46, HEPG2TOX_R_SQUARED 0.824, read-out: LUCIFERASE INFECTION ASSAY - IC50): > 10 µM | IC90: > 10 µM

CC(=O)c1ccc(NC(=O)c2nn(-c3ccccc3)c3c2C2CCC3(C)C2(C)C)cc1 (stereo not given)
IC50 (FFLUC_HILL_SLOPE 16.9, FFLUC_R_SQUARED 0.354, read-out: LUCIFERASE INFECTION ASSAY - IC50): > 10 µM | IC90: > 10 µM

Nc1ccc(-c2cn3c(-c4cccc(O)c4)cnc3cn2)cn1
IC50 (PBLUC_HILL_SLOPE 9.28, PBLUC_R_SQUARED 0.463, read-out: LUCIFERASE INFECTION ASSAY - IC50): 9.03 µM | IC90: > 10.9 µM

Cc1cccc(NC(=O)CN2CCN(C(=O)c3csc(-c4ccc(C(C)C)cc4)n3)CC2)c1C
IC50 (PBLUC_HILL_SLOPE 12.3, PBLUC_R_SQUARED 0.609, read-out: LUCIFERASE INFECTION ASSAY - IC50): 3.19 µM | IC90: 3.81 µM

CCOc1ccccc1NC1=C(Cl)C(=O)c2ccccc2C1=O
IC50 (HEPG2TOX_HILL_SLOPE 12.2, HEPG2TOX_R_SQUARED 0.715, PBLUC_HILL_SLOPE 2.84, PBLUC_R_SQUARED 0.486, read-out: LUCIFERASE INFECTION ASSAY - IC50): 4.58 µM | IC90: 9.94 µM

O=[N+]([O-])c1cc(/C=N/O)ccc1Oc1ccc(Cl)cc1
IC50 (PBLUC_HILL_SLOPE 1.72, PBLUC_R_SQUARED 0.416, read-out: LUCIFERASE INFECTION ASSAY - IC50): 6.18 µM | IC90: > 11.3 µM

Cc1cccc(CNc2nc3cnc(-c4cccc(Oc5ccccc5)c4)cc3n2C)c1
IC50 (FFLUC_HILL_SLOPE 2.46, FFLUC_R_SQUARED 0.608, HEPG2TOX_HILL_SLOPE 16, HEPG2TOX_R_SQUARED 0.341, PBLUC_HILL_SLOPE 8.58, PBLUC_R_SQUARED 0.684, read-out: LUCIFERASE INFECTION ASSAY - IC50): 3 µM | IC90: 3.88 µM

O=C(Nc1ccc(OCc2ccccc2)cc1)C1=COC2=NC(=O)N(Cc3cccc(Cl)c3)CCN12
IC50 (HEPG2TOX_HILL_SLOPE 2.27, HEPG2TOX_R_SQUARED 0.429, PBLUC_HILL_SLOPE 8.12, PBLUC_R_SQUARED 0.376, read-out: LUCIFERASE INFECTION ASSAY - IC50): 3.41 µM | IC90: 4.47 µM

CC1Cc2cc(S(N)(=O)=O)ccc2N1CCCOc1ccc(F)cc1 (stereo not given)
IC50 (HEPG2TOX_HILL_SLOPE 3.41, HEPG2TOX_R_SQUARED 0.506, PBLUC_HILL_SLOPE 2.13, PBLUC_R_SQUARED 0.616, read-out: LUCIFERASE INFECTION ASSAY - IC50): 6.18 µM | IC90: > 10 µM

COCCOc1ccc(C(F)(F)F)cc1NC(=O)COc1ccc2ccc(=O)oc2c1
IC50 [1]: > 10 µM | IC90: > 10 µM

Cc1nc(C(=O)NNC(=O)c2c(-c3c(Cl)cccc3Cl)noc2C)cs1
IC50 (HEPG2TOX_HILL_SLOPE 1.49, HEPG2TOX_R_SQUARED 0.872, PBLUC_HILL_SLOPE 12.3, PBLUC_R_SQUARED 0.357, read-out: LUCIFERASE INFECTION ASSAY - IC50): 2.61 µM | IC90: 3.12 µM

COc1ccc(CNc2nc(C)nc3scc(-c4cccs4)c23)cn1
IC50 (HEPG2TOX_HILL_SLOPE 2.96, HEPG2TOX_R_SQUARED 0.967, read-out: LUCIFERASE INFECTION ASSAY - IC50): > 10 µM | IC90: > 10 µM

COc1cccc(Nc2nc(C(N)Cc3ccc(F)cc3)cs2)n1 (stereo not given)
IC50 [1]: > 9.58 µM | IC90: > 9.58 µM

O=C(NC(CCCc1ccccc1)c1ccccc1)c1ccc(N2CCCS2(=O)=O)cc1 (stereo not given)
IC50 [1]: 5.56 µM | IC90: 5.73 µM

O=C(C1CN(C(=O)CCCc2c[nH]c3ccccc23)c2ccccc2O1)N1CCCCC1 (stereo not given)
IC50 [1]: > 10 µM | IC90: > 10 µM

O=C1C=CC(=O)N1c1ccc(Cl)c(Cl)c1
IC50 (FFLUC_HILL_SLOPE 16.6, FFLUC_R_SQUARED 0.832, read-out: LUCIFERASE INFECTION ASSAY - IC50): > 13.6 µM | IC90: > 13.6 µM

CC(C)NS(=O)(=O)c1cccc(CNc2ncnc3ccccc23)c1
IC50 (HEPG2TOX_HILL_SLOPE 0.638, HEPG2TOX_R_SQUARED 0.943, PBLUC_HILL_SLOPE 2.45, PBLUC_R_SQUARED 0.694, read-out: LUCIFERASE INFECTION ASSAY - IC50): 0.954 µM | IC90: 2.34 µM

CCC(C(=O)Nc1nc2ccccn2c1C(=O)NC1CCCCC1)c1ccccc1 (stereo not given)
IC50 (PBLUC_HILL_SLOPE 15.5, PBLUC_R_SQUARED 0.112, read-out: LUCIFERASE INFECTION ASSAY - IC50): 7.66 µM | IC90: > 8.16 µM
